Values quoted from earlier work as cited in patent publication US5691307A, “O^6 -substituted guanine compositions and methods for depleting O^6” (The United States of America as represented by the …, priority 1994, dated 1997).
“Also recorded” adds a separate entry of the source.

Key:
AGT = settings: cited from earlier work
[1] = tested on: AGT activity of D341MED xenograft tumors; settings: i.p., sc D341MED; cited from earlier work
[2] = tested on: intracranial (ic) xenografts of D341MED; settings: athymic mice; cited from earlier work
[3] = tested on: D245MG, a human glioma xenograft; settings: sc D245MG, cited from earlier work
prostate tumors = settings: cited from earlier work
[4] = tested on: human colon cancer cells (HT29); settings: HT29, in vitro; cited from earlier work
[5] = tested on: malignant glioma cells (SF767); settings: SF767, in vitro; cited from earlier work
melanoma cells (M19-mel) = settings: in vitro; cited from earlier work
tumor cells = settings: cited from earlier work
[6] = athymic mice; cited from earlier work
[7] = tested on: D341MED, a human medulloblastoma xenograft; settings: sc D341MED, cited from earlier work
human tumor xenografts = settings: nude mice bearing human tumor xenografts; cited from earlier work

With Nc1nc(OCc2ccccc2)c2nc[nH]c2n1 [O^6 -benzylguanine] as the compound, how does the “potency as AGT depleter” value (AGT) read?
Its value is “more potent”.

What about the “AGT depletion (shown previously)” value (AGT; literature) of the same compound?
Its value is “effective in depleting AGT; also recorded: dramatic and rapid depletion of cellular alkyltransferase activity”.

And the “AGT activity of the tumors” value [1]?
Its value is “undetectable”.

What about the “time to undetectable tumor AGT activity” value [1] of the same compound?
Its value is no more than 1 h.

And the “time until which tumor AGT remained depleted” value [1]?
The value was 36 h.

What about the “survival, BCNU 1 hour after O^6-benzylguanine” value [2] of the same compound?
Its value is “significantly increased survival as compared to that of control, BCNU alone, O^6 -benzylguanine alone and O^6 -benzylguanine followed 36 hours later by BCNU”.

What about the “therapeutic effect, higher doses of O^6-benzylguanine” value ([3]; with BCNU) of the same compound?
Its value is “greater therapeutic effect”.

And the “therapeutic effect of combination regimens vs equitoxic dose of BCNU alone” value [3]?
The value was “None of the combination regimens, however, were as effective as an equitoxic dose of BCNU alone”.

And the “therapeutic effect, O^6-benzylguanine 1 hour prior to BCNU” value [3]?
The value was “significantly greater effect than was seen with BCNU treatment alone”.

And the “anti-tumor effect of BCNU after O^6-benzylguanine pretreatment” value (prostate tumors; prostate cancer)?
Its value is “enhanced”.

And the “regression in tumor growth” value (prostate tumors; rats bearing prostate tumors, O^6-benzylguanine one hour prior to BCNU, or BCNU alone at equal dose)?
The value was “regression in tumor growth”.

What about the “sensitivity to chloroethylating and methylating anti-tumor drugs” value (“sensitivity” for short) [4] of the same compound?
Its value is “increase the sensitivity”.

What about the “sensitivity” value [5] of the same compound?
Its value is “increase the sensitivity”.

And the “sensitivity” value (melanoma cells (M19-mel))?
The value was “increase the sensitivity”.

What about the “enhancement in the cytotoxic response to alkylating agents” value (tumor cells) of the same compound?
The value was “enhancement in the cytotoxic response to chemotherapeutic alkylating agents”.

What about the “toxicity of BCNU after O^6-benzylguanine pretreatment” value [6] of the same compound?
Its value is “increased the toxicity of BCNU significantly”.

What about the “therapeutic effect, lower pretreatment dose of O^6-benzylguanine” value ([7]; with BCNU) of the same compound?
The value was “significantly lesser therapeutic effect”.

And the “therapeutic effect, BCNU 1 hour after O^6-benzylguanine” value [7]?
Its value is “significantly greater effect than was seen with either the same or a higher dose of BCNU alone”.

What about the “therapeutic effect, BCNU delayed until 36 hours after O^6-benzylguanine” value [7] of the same compound?
The value was “greatly reduced effect that was not significantly different than that produced by control or BCNU alone”.

And the “therapeutic effectiveness of chloroethylating nitrosoureas after pretreatment” value (human tumor xenografts)?
The value was “dramatic increase in the therapeutic effectiveness of chloroethylating nitrosoureas in vivo”.
